Results taken from ChEMBL document CHEMBL4665770, “Design and Discovery of Natural Cyclopeptide Skeleton Based Programmed Death Ligand 1 Inhibitor as Immune Modulator for Cancer Therapy” (J Med Chem, 2020).
The source made the active and inactive calls. The rule behind the calls is not given here.

How the values were obtained:
[1] = biological target: T1, Programmed cell death protein 1/Programmed cell death 1 ligand 1 (Homo sapiens, UniProt Q9NZQ7); assay: Inhibition of PD1-Tag2/PD-L1-Tag1 (unknown origin) protein-protein interaction preincubated for 15 mins followed by addition of anti-Tag1-Eu3+ and anti-Tag2-XL665 measured after 3 hrs by HTRF assay; type: protein-complex assay
[2] = biological target: Programmed cell death protein 1/Programmed cell death 1 ligand 1 (Homo sapiens) (UniProt Q15116+Q9NZQ7); assay: Inhibition of PD1-Tag2/PD-L1-Tag1 (unknown origin) protein-protein interaction at 20 uM preincubated for 15 mins followed by addition of anti-Tag1-Eu3+ and anti-Tag2-XL665 measured after 3 hrs by HTRF assay relative to control; type: protein-complex assay; details: time 195.0 min
[3] = biological target: Programmed cell death protein 1 (Homo sapiens, UniProt Q15116); assay: Binding affinity to PD1 (unknown origin) by SPR analysis
MDA-MB-231 [4] = assay: Cytotoxicity against human MDA-MB-231 cells assessed as reduction in cell viability at 0.312 to 80 uM incubated for 72 hrs by MTT assay; type: cell-based; details: mda-mb-231, 72 h, dose 0.312-80 µM
MDA-MB-231 [5] = assay: Immunomodulatory activity in human CFDA SE-labelled MDA-MB-231 cells cocultured with PMBC assessed as induction of PBMC recruitment to MDA-MB-231 cells by measuring late apoptotic cells at 20 uM incubated for 48 hrs by propidium iodide staining based flow cytometry analysis (reference value: 0 %); type: functional
MDA-MB-231 [6] = assay: Immunomodulatory activity in human MDA-MB-231 cocultured with PMBC assessed as induction of PBMC recruitment to MDA-MB-231 cells by measuring increase in cell cluster at 20 uM incubated for 12 to 48 hrs by EVOS FL digital microscopic analysis; type: functional, cell-based; details: time hrs 12-48
B16-F10 [7] = assay: Induction of immune response mediated antitumor activity in mouse B16F10 cells xenografted in C57/BL mouse assessed as change in ratio of CD8+/CD3+ cells at 40 mg/kg, ip administered every other day from day 6 post implantation by flow cytometry; type: functional, organism-based
[8] = Induction of immune response mediated antitumor activity in mouse B16F10 cells xenografted in C57/BL mouse assessed as reduction in tumor volume at 40 mg/kg, ip administered every other day from day 6 post implantation measured every 2 days relative to control; type: functional, B16-F10; design: scale not given: the % may be the effect or the level left
MDA-MB-231 [9] = assay: Immunomodulatory activity in human CFDA SE-labelled MDA-MB-231 cells cocultured with PMBC assessed as induction of PBMC recruitment to MDA-MB-231 cells by measuring viable cells at 20 uM incubated for 48 hrs by propidium iodide staining based flow cytometry analysis (reference value: 99.87 %); type: functional
[10] = biological target: Programmed cell death 1 ligand 1 (Homo sapiens, UniProt Q9NZQ7); assay: Binding affinity to PDL1 (unknown origin) by SPR analysis
[11] = Induction of immune response mediated antitumor activity in mouse B16F10 cells xenografted in C57/BL mouse assessed as infiltration of CD8 cells at 40 mg/kg, ip administered every other day from day 6 post implantation by flow cytometry (reference value: 26.9 %); type: functional, B16-F10
[12] = Induction of immune response mediated antitumor activity in mouse B16F10 cells xenografted in C57/BL mouse assessed as reduction in tumor weight at 40 mg/kg, ip administered every other day from day 6 post implantation measured every 2 days relative to control; type: functional, B16-F10; design: scale not given: the % may be the effect or the level left
B16-F10 [13] = assay: Toxicity in mouse B16F10 cells xenografted C57/BL mouse assessed as change in body weight at 40 mg/kg, ip administered every other day from day 6 post implantation measured every 2 days; type: organism-based; details: in vivo, 48 h
MDA-MB-231 [14] = assay: Cytotoxicity against human MDA-MB-231 cells expressing luciferase assessed as reduction in cell viability at 0.312 to 80 uM incubated for 72 hrs by tecan-plate reader based luciferase assay; details: mda-mb-231, 72 h, dose 0.312-80 µM
MDA-MB-231 [15] = assay: Immunomodulatory activity in human MDA-MB-231 cells expressing luciferase assessed as induction of PBMC-induced cell death incubated for 72 hrs by tecan-plate reader based luciferase assay; type: functional; details: dose microM 0.313-80, time 72.0 hrs
MDA-MB-231 [16] = assay: Immunomodulatory activity in human MDA-MB-231 cells cocultured with human PBMC assessed as induction of PBMC recruitment to MDA-MB-231 cells by measuring increase in activated caspase-3 at 20 uM incubated for 24 hrs by GrennNuc caspase-3 substrate based assay; type: functional, cell-based
[17] = Induction of apoptosis in human PBMC cells assessed as activated caspase-3 at 20 uM incubated for 24 hrs by GrennNuc caspase-3 substrate based assay; type: cell-based
MC-38 [18] = assay: Immunomodulatory activity in mouse MC38 cells xenografted in C57/BL mouse assessed as increase in granzyme B at 40 mg/kg, ip administered every other day from day 6 post implantation by hematoxylin staining based immunohistochemical analysis; type: functional, organism-based
MC-38 [19] = assay: Immunomodulatory activity in mouse MC38 cells xenografted in C57/BL mouse assessed as increase in infiltration of CD3-positive T cells at 40 mg/kg, ip administered every other day from day 6 post implantation by DAPI staining based immunofluorescence microscopy; type: functional, organism-based
MDA-MB-231 [20] = assay: Immunomodulatory activity in human CFDA SE-labelled MDA-MB-231 cells cocultured with PMBC assessed as induction of PBMC recruitment to MDA-MB-231 cells by measuring necrotic cell at 20 uM incubated for 48 hrs by propidium iodide staining based flow cytometry analysis (reference value: 0.13 %); type: functional
MC-38 [21] = assay: Immunomodulatory activity in mouse MC38 cells xenografted in C57/BL mouse assessed as increase in perforin at 40 mg/kg, ip administered every other day from day 6 post implantation by hematoxylin staining based immunohistochemical analysis; type: functional, organism-based
MDA-MB-231 [22] = assay: Immunomodulatory activity in human CFDA SE-labelled MDA-MB-231 cells cocultured with PMBC assessed as induction of PBMC recruitment to MDA-MB-231 cells by measuring early apoptotic cells at 20 uM incubated for 48 hrs by propidium iodide staining based flow cytometry analysis (reference value: 0 %); type: functional
MC-38 [23] = assay: Induction of immune response mediated antitumor activity in mouse MC38 cells xenografted in C57/BL mouse assessed as tumor growth inhibition at 40 mg/kg, ip administered every other day from day 6 post implantation measured every 2 days; type: functional, organism-based
MDA-MB-231 [24] = assay: Induction of apoptosis in human MDA-MB-231 cells assessed as activated caspase-3 at 20 uM incubated for 24 hrs by GrennNuc caspase-3 substrate based assay; type: cell-based; details: mda-mb-231, 24 h
MC-38 [25] = assay: Immunomodulatory activity in mouse MC38 cells xenografted in C57/BL mouse assessed as increase in infiltration of CD8-positive T cells at 40 mg/kg, ip administered every other day from day 6 post implantation by DAPI staining based immunofluorescence microscopy; type: functional, organism-based
[26] = Induction of immune response mediated antitumor activity in mouse B16F10 cells xenografted in C57/BL mouse assessed as infiltration of CD3 cells at 40 mg/kg, ip administered every other day from day 6 post implantation by flow cytometry (reference value: 1.45 %); type: functional, B16-F10
B16-F10 [27] = assay: Induction of immune response mediated antitumor activity in mouse B16F10 cells xenografted in C57/BL mouse assessed as change in ratio of CD3+/CD45+ cells at 40 mg/kg, ip administered every other day from day 6 post implantation by flow cytometry; type: functional, organism-based
B16-F10 [28] = assay: Induction of immune response mediated antitumor activity in mouse B16F10 cells xenografted in C57/BL mouse coadministered with anti-CD8 antibody assessed as suppression of tumor growth at 40 mg/kg, ip administered every other day from day 6 post implantation measured every 2 days; type: functional, organism-based
[29] = Induction of immune response mediated antitumor activity in mouse B16F10 cells xenografted in C57/BL mouse assessed as infiltration of CD45 cells at 40 mg/kg, ip administered every other day from day 6 post implantation by flow cytometry (reference value: 1.81 %); type: functional, B16-F10
MDA-MB-231 [30] = assay: Immunomodulatory activity in human MDA-MB-231 cells expressing luciferase assessed as induction of PBMC-induced cell death incubated for 72 hrs by LDH assay; type: functional, cell-based; details: dose microM 0.313-80, time 72.0 hrs
[31] = biological target: T1, Programmed cell death protein 1/Programmed cell death 1 ligand 1; assay: Inhibition of FC-tagged PD1/His-tagged PD-L1 (unknown origin) protein-proteiinteraction incubated for 3 hrs by coimmunoprecipitation-based Western blot assay; type: protein-complex assay
[32] = Toxicity in mouse MC38 cells xenografted C57/BL mouse assessed as change in body weight at 40 mg/kg, ip administered every other day from day 6 post implantation measured every 2 days; type: organism-based; details: in vivo, 48 h

T1 sequence (Q15116 whole entry): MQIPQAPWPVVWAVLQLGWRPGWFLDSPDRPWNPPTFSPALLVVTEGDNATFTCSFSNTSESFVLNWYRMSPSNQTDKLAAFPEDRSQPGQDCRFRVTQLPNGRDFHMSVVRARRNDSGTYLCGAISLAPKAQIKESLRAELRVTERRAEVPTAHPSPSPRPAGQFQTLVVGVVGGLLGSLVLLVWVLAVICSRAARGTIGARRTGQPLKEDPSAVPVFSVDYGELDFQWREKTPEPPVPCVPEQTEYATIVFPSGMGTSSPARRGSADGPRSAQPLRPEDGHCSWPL
T1 sequence (Q9NZQ7 whole entry): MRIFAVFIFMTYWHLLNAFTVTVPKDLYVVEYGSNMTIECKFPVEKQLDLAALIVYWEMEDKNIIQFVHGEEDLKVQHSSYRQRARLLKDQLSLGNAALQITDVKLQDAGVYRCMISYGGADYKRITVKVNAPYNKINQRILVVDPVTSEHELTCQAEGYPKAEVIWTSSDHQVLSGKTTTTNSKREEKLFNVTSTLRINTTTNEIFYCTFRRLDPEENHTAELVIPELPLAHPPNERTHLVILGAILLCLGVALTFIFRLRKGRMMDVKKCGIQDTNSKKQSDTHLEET
Chain of Programmed cell death protein 1 (Q15116 whole entry): as the sequence (Q15116 whole entry) above
Chain of Programmed cell death 1 ligand 1 (Q9NZQ7 whole entry): as the sequence (Q9NZQ7 whole entry) above

CCCC[C@@H]1NC(=O)[C@H](CC(=O)O)NC(=O)[C@H]([C@@H](C)O)NC(=O)[C@@H]2CCCN2C(=O)[C@@H](Cc2c[nH]c3ccccc23)NC(=O)[C@H](CC(C)C)NC(=O)[C@H](CCCNC(=N)N)NC(=O)[C@H](C(C)C)NC(=O)[C@@H]2CCCN2C(=O)[C@@H](Cc2ccccc2)NC1=O
IC50 [1]: 5.02 µM
inhibition [2]: 82.1%

CC(C)C[C@@H]1NC(=O)[C@H](CCCNC(=N)N)NC(=O)[C@H](C(C)C)NC(=O)[C@@H]2CCCN2C(=O)[C@@H](Cc2ccccc2)NC(=O)[C@H](CC(C)C)NC(=O)[C@H](CC(=O)O)NC(=O)[C@H](C)NC(=O)[C@@H]2CCCN2C(=O)[C@@H](Cc2ccccc2)NC1=O
IC50 [1]: 8.1 µM
inhibition [2]: 66.4%

CC(C)C[C@@H]1NC(=O)[C@H](CCCNC(=N)N)NC(=O)[C@H](C(C)C)NC(=O)[C@@H]2CCCN2C(=O)[C@@H](Cc2ccccc2)NC(=O)[C@H](C)NC(=O)[C@H](CC(=O)O)NC(=O)[C@H](C)NC(=O)[C@@H]2CCCN2C(=O)[C@@H](Cc2ccccc2)NC1=O
IC50 [1]: 27.5 µM
inhibition [2]: 51.9%

CC(C)C[C@@H]1NC(=O)[C@H](CC(=O)O)NC(=O)[C@H](C(C)C)NC(=O)[C@@H]2CCCN2C(=O)[C@@H](Cc2c[nH]c3ccccc23)NC(=O)[C@H](CC(C)C)NC(=O)[C@H](CCCNC(=N)N)NC(=O)[C@H](C(C)C)NC(=O)[C@@H]2CCCN2C(=O)[C@@H](Cc2ccccc2)NC1=O
IC50 [1]: 7.42 µM
inhibition [2]: 66.8%

CC(NCCCC[C@@H]1NC(=O)[C@@H](Cc2ccccc2)NC(=O)[C@H](CC(C)C)NC(=O)[C@H](CC(=O)O)NC(=O)[C@H]([C@@H](C)O)NC(=O)[C@@H]2CCCN2C(=O)[C@@H](Cc2c[nH]c3ccccc23)NC(=O)[C@H](CC(C)C)NC(=O)[C@H](CCCNC(=N)N)NC(=O)[C@H](C(C)C)NC1=O)=C1C(=O)CC(C)(C)CC1=O
Kd [3]: 1660 µM
Activity (MDA-MB-231 [4]): Non-Toxic
Activity (MDA-MB-231 [5]): 57.03%
Activity (MDA-MB-231 [6]): Active
Activity (B16-F10 [7]): inactive
Activity [8]: 54.8%
Activity (MDA-MB-231 [9]): 0.46%
Kd [10]: 5.67 µM
Activity [11]: 36.5%
Activity [12]: 64.9%
Activity (B16-F10 [13]): Non-Toxic
Activity (MDA-MB-231 [14]): Non-Toxic
Activity (MDA-MB-231 [15]): Dose-dependent effect
Activity (MDA-MB-231 [16]): Active
Activity [17]: Non-Toxic
Activity (MC-38 [18]): Active
Activity (MC-38 [19]): Active
Activity (MDA-MB-231 [20]): 0%
IC50 [1]: 1.42 µM
Activity (MC-38 [21]): Active
Activity (MDA-MB-231 [22]): 42.33%
TGI (MC-38 [23]): Active
Activity (MDA-MB-231 [24]): Non-Toxic
Activity (MC-38 [25]): Active
Activity [26]: 5.21%
Activity (B16-F10 [27]): inactive
Activity (B16-F10 [28]): inactive
Activity [29]: 13.3%
inhibition [2]: 95.8%
Activity (MDA-MB-231 [30]): Dose-dependent effect
IC50 [31]: 0.45 µM
Activity [32]: Non-Toxic

CC(C)C[C@@H]1NC(=O)[C@H](CC(=O)O)NC(=O)[C@H]([C@@H](C)O)NC(=O)[C@@H]2CCCN2C(=O)[C@@H](Cc2ccccc2)NC(=O)[C@H](CC(C)C)NC(=O)[C@H](CCCNC(=N)N)NC(=O)[C@H](C(C)C)NC(=O)[C@@H]2CCCN2C(=O)[C@@H](Cc2ccccc2)NC1=O
IC50 [1]: 6.35 µM
inhibition [2]: 72.4%

CC[C@H](C)[C@@H]1NC(=O)[C@H](CC(=O)O)NC(=O)[C@H]([C@@H](C)O)NC(=O)[C@@H]2CCCN2C(=O)[C@@H](Cc2c[nH]c3ccccc23)NC(=O)[C@H](CC(C)C)NC(=O)[C@H](CCCNC(=N)N)NC(=O)[C@H]([C@@H](C)CC)NC(=O)[C@@H]2CCCN2C(=O)[C@@H](Cc2ccccc2)NC1=O
IC50 [1]: 5.37 µM
inhibition [2]: 80.4%

CC(C)C[C@@H]1NC(=O)[C@H](CC(=O)O)NC(=O)[C@H](C(C)C)NC(=O)[C@@H]2CCCN2C(=O)[C@@H](Cc2ccccc2)NC(=O)[C@H](CC(C)C)NC(=O)[C@H](CCCNC(=N)N)NC(=O)[C@H](C(C)C)NC(=O)[C@@H]2CCCN2C(=O)[C@@H](Cc2ccccc2)NC1=O
IC50 [1]: 9.63 µM
inhibition [2]: 57.3%

CC(NCCCC[C@@H]1NC(=O)[C@@H](Cc2ccccc2)NC(=O)[C@H](CC(C)C)NC(=O)[C@H](CC(=O)O)NC(=O)[C@H](C(C)C)NC(=O)[C@@H]2CCCN2C(=O)[C@@H](Cc2c[nH]c3ccccc23)NC(=O)[C@H](CC(C)C)NC(=O)[C@H](CCCNC(=N)N)NC(=O)[C@H](C(C)C)NC1=O)=C1C(=O)CC(C)(C)CC1=O
inhibition [2]: 3.86%

CC(C)C[C@@H]1NC(=O)[C@H](CC(=O)O)NC(=O)[C@H](C(C)C)NC(=O)[C@@H]2CCCN2C(=O)[C@@H](Cc2ccccc2)NC(=O)[C@H](CC(C)C)NC(=O)[C@H](CCCNC(=N)N)NC(=O)[C@H](CCC(=O)O)NC(=O)[C@@H]2CCCN2C(=O)[C@@H](Cc2ccccc2)NC1=O
inhibition [2]: -3.03%
